Reference: US8846672B2, “Imidazopyridines as respiratory syncytial virus antiviral agents” (Janssen R&D Ireland, priority 2010, dated 2014)

Experiments:
RSV = RSV inhibitory activity (WT activity); assay type: cell-based, respiratory syncytial virus
[1] = human respiratory syncytial virus, Table 1, wild-type RSV
[2] = human respiratory syncytial virus, Table 2, wild-type RSV

Row | Compound | EC50 (RSV; Table 1, wild-type RSV) [nM] | EC50 (RSV; Table 2, wild-type RSV) [nM] | further results
1 | O=c1n(Cc2cn3ccncc3n2)c2cnccc2n1C1CC1 [Compound P14] | > 98400 |  | 
2 | COC(=O)C=Cc1c(Cn2c(=O)n(C3CC3)c3ccncc32)nc2cc(Cl)ccn12 [Compound P20] |  | 2.97 | 
3 | COCC#Cc1c(Cn2c(=O)n(C3CC3)c3ccncc32)nc2cc(Cl)ccn12 [Compound P6] | 170 |  | 
4 | COCCCc1c(Cn2c(=O)n(C3CC3)c3ccncc32)nc2cc(Cl)ccn12 [Compound P2] | 3.8 |  | 
5 | CC(C)CC#Cc1c(Cn2c(=O)n(C(C)C)c3ccccc32)nc2ccccn12 [Compound P11] | 11300 |  | 
6 | O=c1n(Cc2nc3ccccn3c2CCCCO)c2cnccc2n1C1CC1 [Compound P5] | 21.8 |  | 
7 | O=c1n(Cc2nc3ccccn3c2CCC2CC2)c2cnccc2n1C1CC1 [Compound P3, 1-cyclopropyl-3-((3-(2-cyclopropylethyl)imidazo-[1,2-a]pyridin-2-yl)methyl)-1H-imidazo[4,5-c]pyridin-2(3H)-one] |  |  | CC50 (Toxicity (CC50)): > 9840 nM; EC50 (RSV; [1]): 5.25 nM
8 | O=c1n(Cc2nc3cc(CCCCO)ccn3c2CCCCO)c2cnccc2n1C1CC1 [Compound P10] | > 9840 |  | 
9 | O=C(CCc1c(Cn2c(=O)n(C3CC3)c3ccncc32)nc2cc(Cl)ccn12)N1CCOCC1 [Compound P26, 3-((7-chloro-3-(3-morpholino-3-oxopropyl)imidazo[1,2-a]pyridin-2-yl)methyl)-1-cyclopropyl-1H-imidazo[4,5-c]pyridin-2(3H)-one] |  |  | EC50 (RSV; [2]): 2.19 nM
10 | O=c1n(Cc2nc3cnccn3c2CCCCF)c2cnccc2n1C1CC1 [Compound P18, 1-cyclopropyl-3-((3-(4-fluorobutyl)imidazo[1,2-a]pyrazin-2-yl)methyl)-1H-imidazo[4,5-c]pyridin-2(3H)-one] |  |  | EC50 (RSV; [2]): 544 nM
11 | CC(C)(C)C=Cc1c(Cn2c(=O)n(C3CC3)c3ccncc32)nc2cnccn12 [Compound P15] |  | 318 | 
12 | CC(C)n1c(=O)n(Cc2cn3ccccc3n2)c2ccccc21 [Compound P12] | 16100 |  | 
13 | O=c1n(Cc2nc3cc(Cl)ccn3c2CCCCO)c2cnccc2n1C1CC1 [Compound P1, 3-((7-chloro-3-(4-hydroxybutyl)imidazo[1,2-a]pyridin-2-yl)methyl)-1-cyclopropyl-1H-imidazo[4,5-c]pyridin-2(3H)-one] |  |  | CC50 (Toxicity (CC50)): > 9840 nM; EC50 (RSV; [1]): 0.4 nM
14 | CN(C)C(=O)CCc1c(Cn2c(=O)n(C3CC3)c3ccncc32)nc2ccccn12 [Compound P25] |  | 15.3 | 
15 | N#CC=Cc1c(Cn2c(=O)n(C3CC3)c3ccncc32)nc2cc(Cl)ccn12 [Compound P21] |  | 13.6 | 
16 | O=c1n(Cc2cn3ccccc3n2)c2cnccc2n1C1CC1 [Compound P13] | 51500 |  | 
17 | CN(C)C(=O)CCc1c(Cn2c(=O)n(C3CC3)c3ccncc32)nc2cc(Cl)ccn12 [Compound P23] |  | 2.61 | 
18 | CC(C)(C)CCc1c(Cn2c(=O)n(C3CC3)c3ccncc32)nc2cnccn12 [Compound P16] |  | 172 | 
19 | O=c1n(Cc2nc3cnccn3c2CCCCO)c2cnccc2n1C1CC1 [Compound P17, 1-cyclopropyl-3-((3-(4-hydroxybutyl)imidazo[1,2-a]pyrazin-2-yl)methyl)-1H-imidazo[4,5-c]pyridin-2(3H)-one] |  |  | EC50 (RSV; [2]): 276 nM
20 | O=C(CCc1c(Cn2c(=O)n(C3CC3)c3ccncc32)nc2ccccn12)N1CCOCC1 [Compound P27, 1-cyclopropyl-3-((3-(3-morpholino-3-oxopropyl)imidazo[1,2-a]pyridin-2-yl)methyl)-1H-imidazo[4,5-c]pyridin-2(3H)-one] |  |  | EC50 (RSV; [2]): 55.8 nM
